Earlier results, collected in US20240252571A1, “Hemp Essential Oil” (priority 2023, published 2024).
“Also recorded” adds a separate entry of the source. Read-outs that look alike come from different tables or passages of the source. Where a SMILES comes first, the peptide text is derived from it.

Legend:
[1] = system: SZ95 sebocytes
[2] = system: SZ95 sebocytes; conditions: for effect on the lipid synthesis-inhibitory (lipostatic) action of CBD: coapplication with CBD
[3] = system: mild AD; conditions: pediatric population
[4] = system: Methicillin-resistant Staphylococcus aureus (MRSA)
[5] = system: Enterococcus faecalis; conditions: E. faecalis
[6] = system: Methicillin-resistant Staphylococcus epidermidis (MRSE)
[7] = system: Listeria monocytogenes; conditions: L. monocytogenes
[8] = system: mice epidermis; conditions: topical application
[9] = ethosomal carriers, murine model
[10] = system: ionic currents of SZ95 sebocytes; conditions: CBD 10 μM, voltage ramp, -90 and +90 mV
[11] = system: Normal Human Epidermal Keratinocytes (NHEK); conditions: HMOX1 most upregulated
[12] = system: Human dermal fibroblasts (HDFs); conditions: compared with vitamin C
[13] = system: intracellular calcium concentration of SZ95 sebocytes; conditions: for effect on the CBD-induced increase of [Ca2+]IC: with CBD
[14] = system: TNFA, IL1B and IL6 expression in human sebocytes
[15] = CBD 1-10% gel, monoarthritic rat; plasma concentration linear with dose
[16] = system: human keratinocytes
[17] = in vitro diffusion, human tissue
[18] = system: allergic contact dermatitis model; conditions: experimental allergic contact dermatitis model
[19] = system: human sebaceous glands; conditions: ex vivo hSOC
[20] = system: human skin equivalents; conditions: compared with CBD
[21] = system: Interleukin-1β, -6, -8, tumor necrosis factor α release; conditions: inducers UVA, UVB, chemical, C. acnes
[22] = system: itching; conditions: murine models
[23] = lower CBD concentrations, 1-100 nM

## CCCCC/C=C\C/C=C\C/C=C\C/C=C\CCCC(=O)NCCO [AEA, N-arachidonoyl ethanolamide]
[1]; higher levels
  apoptosis of human sebocytes: induces apoptosis
[2]; low concentrations
  lipid production in human sebocytes: stimulate lipid production

## Cc1c(C(=O)NN2CCCCC2)nn(-c2ccc(Cl)cc2Cl)c1-c1ccc(I)cc1 [AM251]
[2]
  effect on the lipid synthesis-inhibitory (lipostatic) action of CBD: neither CB1- nor CB2-specific antagonists (AM251 and AM630) were able to antagonize

## COc1ccc(C(=O)c2c(C)n(CCN3CCOCC3)c3cc(I)ccc23)cc1 [AM630]
[2]
  effect on the lipid synthesis-inhibitory (lipostatic) action of CBD: neither CB1- nor CB2-specific antagonists (AM251 and AM630) were able to antagonize

## O=C(CCCCCCCC(=O)NCCO)NCCO [Adelmidrol]
[3]
  efficacy in mild AD: effective in treating mild AD

## CC[C@H](C)[C@H](N)C1=N[C@H](C(=O)N[C@@H](CC(C)C)C(=O)N[C@H](CCC(=O)O)C(=O)N[C@H](C(=O)N[C@H]2CCCCNC(=O)[C@H](CC(N)=O)NC(=O)[C@@H](CC(=O)O)NC(=O)[C@H](Cc3cnc[nH]3)NC(=O)[C@@H](Cc3ccccc3)NC(=O)[C@H]([C@@H](C)CC)NC(=O)[C@@H](CCCN)NC2=O)[C@@H](C)CC)CS1 [BAC, Bacitracin] (HELM PEPTIDE1{[CC[C@H](C)[C@H](N)C1=N[C@H](C(=O)[*:2])CS1].L.[dE].I.K.[NCCC[C@@H](N[*:1])C(=O)[*:2]].I.[dF].H.[dD].N}$PEPTIDE1,PEPTIDE1,5:R3-11:R2$$$V2.0)
[4]; MRSA, combined with ½ MIC of C3D
  reduction of MIC of BAC versus BAC alone: ≥ 64 fold
[5]; combined with ½ MIC of C3D
  reduction of MIC of BAC versus BAC alone: ≥ 64 fold
[6]; combined with ½ MIC of C3D
  reduction of MIC of BAC versus BAC alone: ≥ 64 fold

## C=C(C)[C@@H]1CCC(C)=C[C@H]1c1c(O)cc(CCCCC)cc1O [CBD, cannabidiol]
[1]; 10 μM CBD, elongated application, 6-day treatments
  cell number: decreased; also recorded: reduced
[1]; 50 μM CBD
  cytotoxicity: evoked apoptosis-driven cytotoxicity
[1]; CBD 1-10 μM
  cellular viability, apoptosis, necrosis: did not decrease cellular viability or induce either apoptosis or necrosis
  proliferation of SZ95 sebocytes: significantly reduce
[7]
  Minimum Inhibitory Concentration (MIC): 4 µg/mL
[4]
  activity against a variety of MRSA strains: potent activity
[4]; MRSA
  Minimum Inhibitory Concentration (MIC): 4 µg/mL
[8]
  levels of HMOX1 and expression of keratins 16 and 17: increased
[9]
  transdermal delivery: successful transdermal delivery
[10]
  membrane currents: induced a mostly outwardly rectifying current and a positive shift in the reversal potential
[11]
  expression of NRF2 target genes: induced the expression of several NRF2 target genes
[5]
  Minimum Inhibitory Concentration (MIC): 8 µg/mL
[12]
  reactive oxygen species levels: reduce reactive oxygen species levels in HDFs better than vitamin C
[13]
  intracellular calcium concentration ([Ca2+]IC): significantly increased
[6]
  Minimum Inhibitory Concentration (MIC): 8 µg/mL
[14]; LPS-induced
  IL1B expression: normalize
  IL6 expression: normalize
[14]; induced by TLR2 activator lipoteichoic acid (LTA)
  elevation of TNFA expression: completely prevented
[14]; induced by TLR4 activator LPS
  elevation of TNFA expression: completely prevented
[14]; induced by pro-acne LA-T combination
  elevation of TNFA expression: prevent
[15]
  absorption after topical application: well-absorbed
[16]
  peroxide-induced reduction of polyunsaturated fatty acids in the cell membrane: protective effect
[16]; UVB irradiation and hydrogen peroxide
  oxidative stress response: balance the oxidative stress response
[17]
  permeation: demonstrated CBD's permeation potential
[2]
  lipid synthesis induced by arachidonic acid (AA): effectively inhibited
  lipid synthesis induced by the combination of linoleic acid and testosterone (LA-T): effectively inhibited
[2]; 10 μM CBD, 6-day treatments
  lipogenesis: decreased
[2]; 50 μM CBD
  lipogenesis: decreased lipogenesis
[2]; CBD 1-10 μM, 24-hour treatment
  basal neutral (sebaceous) lipid synthesis: neither semiquantitative Oil Red O nor quantitative Nile Red staining indicated changes; also recorded: no changes
[2]; CBD 1-10 μM, dose-dependent
  inhibition of the lipogenic action of AEA: markedly inhibited; also recorded: quell the lipogenic actions in a dose-dependent manner
[2]; acne-like conditions with AA
  AA-enhanced "pathological" lipogenesis (lipidome): almost completely normalized
[2]; listed as CDI
  lipid synthesis induced by arachidonic acid (AA): inhibit extraneous lipid synthesis
  lipid synthesis induced by the combination of linoleic acid and testosterone (LA-T): inhibit extraneous lipid synthesis
[2]; [23]
  AA-induced lipid synthesis: did not influence
  basal lipid synthesis: did not influence
[18]
  anti-inflammatory properties: exhibit anti-inflammatory properties
[19]
  basal lipogenesis in situ: decreased basal lipogenesis
  expression of the proliferation marker MKI67: markedly suppressed
  lipogenic action of AEA in situ: completely prevented

## CCCCCc1cc(O)c(C/C=C(\C)CCC=C(C)C)c(O)c1 [CBG, cannabigerol]
[4]
  activity against a variety of MRSA strains: potent activity
[20]
  genes regulated: regulates more genes than CBD
[12]
  reactive oxygen species levels: reduce reactive oxygen species levels in HDFs better than vitamin C
[21]
  pro-inflammatory cytokine release: inhibits

## Cc1c(C(=O)Nc2cccc(C(F)(F)F)c2)cc(-c2ccccc2)n1CCCN1CCOCC1 [HC067047]
[13]
  effect on the CBD-induced increase of [Ca2+]IC: antagonized
[2]; TRPV4 antagonist alone
  basal lipid synthesis: did not affect basal lipid synthesis
[2]
  effect on the lipid synthesis-inhibitory (lipostatic) action of CBD: prevented

## CCCCCCCCCCCCCCCC(=O)NCCO [PEA]
[22]
  itching: reduce itching

## CCCCCc1cc(O)c2c(c1)OC(C)(C)[C@@H]1CCC(C)=C[C@@H]21 [THC, tetrahydrocannabinol]
[22]
  itching: reduce itching

## COc1cc(CNC(=O)CCCC/C=C/C(C)C)ccc1O [capsaicin]
[2]
  lipostatic action by activation of TRPV1: potent lipostatic actions

## N.N.N.N.N.N.N.N.N.N.N.N.N.N.[Cl-].[Cl-].[Cl-].[Cl-].[Cl-].[Cl-].[O-2].[O-2].[Ru+3].[Ru+3].[Ru+4] [ruthenium red]
[13]
  effect on the CBD-induced increase of [Ca2+]IC: antagonized
